Reference: patent publication US10507211B2, “Treatment for hereditary neuropathy with liability to pressure palsies (HNPP)” (Vanderbilt University, priority 2016, dated 2019)
Marks after values point to notes of the source that are not given here.

Key:
[1] = tested on: Pmp22+/− mice; assay: Percentage of teased nerve fibers with tomacula in treated Pmp22+/− mice; conditions: 0.25 mg/kg/day I.P.
From the text: (§2) Injection started at age of postnatal day 7. […] Using teased nerve fibers, the percentages of nerve fibers with tomacula, a key pathology of HNPP, was quantified, as described [8].
Another 14 Pmp22+/− mice (un-injected) were counted.

[2] = tested on: Pmp22+/− mice; assay: Evaluation of myelin permeability with 3 kDa Dextran in sciatic nerve fascicles of treated Pmp22+/− mice; conditions: 3-month-old Pmp22+/− mice; 0.25 mg/kg; versus vehicle; P<0.001
Method: With reference to Panel E of FIG. 7, sciatic nerve fascicles from 3-month-old Pmp22+/− mice were incubated with 3 kDa Dextran, as described [3], to evaluate the myelin permeability. Individual teased nerve fibers were imaged. Arrowheads point to the node of Ranvier. […] With reference to Panel F of FIG. 7, fluorescence intensity was quantified by placing a 2.5 μm×2.5 μm interest box 10 μm away from the middle point of the node of Ranvier.
In brief, 1 cm sciatic nerve fascicles were submerged in artificial CSF after epineurium removal and sealed at both ends with Vaseline. A 3 kDa Dextran of fluorescence (2 mg/ml, Cat# D3329, Life technologies) was added for one hour incubation at room temperature without oxygenation. After washing, the nerve fascicles were fixed in 4% PFA for 10 minutes and teased into individual nerve fibers on glass slides for fluorescence microscopy. Fluorescence intensity was quantified by placing a 5 μm×5 μm interest box 10 μm away from the middle point of the node of Ranvier.

[3] = tested on: Pmp22+/− mice; assay: Nerve conduction study (NCS) on sciatic nerves of treated Pmp22+/− mice; conditions: for CV(m/s): 0.25 mg/kg/day I.P., n = 8
Method: (§3) Thus, Pmp22+/− mice were treated with 0.25, 0.5, 1.0 mg/kg PF3758309 or vehicle—saline (FIG. 7 and Table 1). […] Injection started at age of postnatal day 7.
In FIG. 7, Panel B, CMAP amplitudes were measured prior to the treatment.
NCS was previously described [8]. […] A skilled technician gets NCS done in each mouse within 6 minutes. […] CMAP was recorded from the intrinsic foot muscle using needle electrodes. Stimulation electrodes were positioned percutaneously at the sciatic notch and adjacent to the tibial nerve at the ankle. CMAP amplitudes were measured from baseline to the peak of negative deflection.

[4] = reference [23]; cited from earlier work
[5] = tested on: F-actin; assay: F-actin staining of teased nerve fibers with fluorescent phalloidin in treated Pmp22+/− mice; type: in vivo, mouse; conditions: versus vehicle
Method: This method was modified from the published study. In brief, sciatic nerves were fixed, embedded in paraffin, and cut into 5 μm-thick slices. Sections were incubated overnight with primary antibodies at 4° C. After washing, sections were stained for 1 hour with secondary antibodies. The stained slides were examined under a Leica fluorescent microscope (Leica DM6000B). For teased nerve stains, sciatic nerves were fixed in 4% paraformaldehyde (PFA) overnight and teased into individual fibers on glass slides. […] For newly formed F-actin staining, as described, the existing F-actin in sciatic nerve explants was saturated with a cell-permeable actin-binding compound, jasplakinolide (Cat#420127, Millipore), at 1 μM in culture media. After washing with PBS, the explants were incubated in a drug-free media for 6 hours at 37° C. The explants were fixed in 4% PFA and teased for F-actin staining using fluorescent phalloidin (1:400, Cat# R415, Life Technologies).

[6] = target: T1, PAK2 (Mus musculus, UniProt Q8CIN4); assay: Phosphorylated PAK2 (S20) in primary Schwann cell culture; type: cell-based; conditions: Schwann cells; 9 μM for 12 hour
T1 construct: Pak1+/+ and Pak1−/− primary Schwann cell culture; endogenous in cells; host or cells: primary Schwann cells, Pak1+/+ and Pak1-/-
T1 sequence (Q8CIN4 whole entry): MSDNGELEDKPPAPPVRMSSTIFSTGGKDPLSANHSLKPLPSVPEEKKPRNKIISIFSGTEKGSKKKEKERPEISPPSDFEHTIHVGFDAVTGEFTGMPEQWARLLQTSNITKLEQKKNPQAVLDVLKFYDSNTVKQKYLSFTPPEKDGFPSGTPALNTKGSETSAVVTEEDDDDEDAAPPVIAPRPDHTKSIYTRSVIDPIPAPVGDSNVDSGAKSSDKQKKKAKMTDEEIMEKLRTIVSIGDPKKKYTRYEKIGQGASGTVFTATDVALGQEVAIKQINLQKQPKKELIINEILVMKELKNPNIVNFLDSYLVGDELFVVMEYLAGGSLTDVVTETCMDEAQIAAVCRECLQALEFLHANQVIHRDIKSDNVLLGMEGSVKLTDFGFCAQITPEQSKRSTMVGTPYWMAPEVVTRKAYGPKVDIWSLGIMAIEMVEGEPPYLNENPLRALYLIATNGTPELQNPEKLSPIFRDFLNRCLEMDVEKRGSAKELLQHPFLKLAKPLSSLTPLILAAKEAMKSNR
From the text: (§1) FIG. 8. […] The total actin and GAPDH were used as loading controls.

[7] = tested on: PAK1; assay: F-actin and phosphorylated PAK1 in Pak1+/+ and Pak1−/− primary Schwann cell culture; type: cell-based; conditions: Pak1−/− Schwann cells; 9 μM for 12 hour
From the text: as §1

[8] = target: T2, PAK1 (Mus musculus, UniProt O88643); assay: as above; type: cell-based; parameters: Pak1+/+ and Pak1−/− primary Schwann cell culture; endogenous in cells; host or cells: primary Schwann cells, Pak1+/+ and Pak1-/-; conditions: Pak1+/+ Schwann cells; 9 μM for 12 hour
From the text: as §1
Target sequence in this assay (O88643 2-545): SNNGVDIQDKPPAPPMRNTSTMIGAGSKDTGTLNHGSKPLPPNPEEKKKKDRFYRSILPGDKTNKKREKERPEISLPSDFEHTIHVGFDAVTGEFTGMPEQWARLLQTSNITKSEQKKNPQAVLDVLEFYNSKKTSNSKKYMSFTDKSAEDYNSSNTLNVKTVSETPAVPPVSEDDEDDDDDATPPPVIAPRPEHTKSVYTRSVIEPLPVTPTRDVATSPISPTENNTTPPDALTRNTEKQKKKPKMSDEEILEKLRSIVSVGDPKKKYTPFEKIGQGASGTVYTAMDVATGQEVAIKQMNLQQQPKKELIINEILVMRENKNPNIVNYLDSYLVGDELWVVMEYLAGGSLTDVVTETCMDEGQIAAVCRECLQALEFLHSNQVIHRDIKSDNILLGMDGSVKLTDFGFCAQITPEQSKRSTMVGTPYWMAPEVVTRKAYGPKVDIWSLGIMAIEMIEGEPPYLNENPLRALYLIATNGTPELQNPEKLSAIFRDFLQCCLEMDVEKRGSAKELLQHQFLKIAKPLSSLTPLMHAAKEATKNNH

[9] = tested on: claudin-19; assay: Abnormal claudin-19 staining of paranodes and incisures (tight junctions) in treated Pmp22+/− mice; conditions: 0.25 mg/kg/day I.P., n = 8
From the text: Paraffin sections of mouse sciatic nerves were stained with antibodies. Percentages of abnormal paranodes or incisures were manually counted [3]. An abnormal paranode or incisurae was defined as the staining was absent in more than a half of normally stained paranodal or incisure territory. […] White dots outline the margin of the nerve fiber, based on its phase-contrast image. […] As shown in Panel E of FIG. 2, teased sciatic nerve fibers of Pmp22+/+ mice at the 3 months of age were stained with antibodies against claudin-19 to show paranodes (quadrant E1) and incisures (arrowhead in quadrant E3).
as §3
In brief, sciatic nerves were fixed, embedded in paraffin, and cut into 5 μm-thick slices. Sections were incubated overnight with primary antibodies at 4° C. After washing, sections were stained for 1 hour with secondary antibodies. The stained slides were examined under a Leica fluorescent microscope (Leica DM6000B). For teased nerve stains, sciatic nerves were fixed in 4% paraformaldehyde (PFA) overnight and teased into individual fibers on glass slides. The slides were dried overnight, reacted with primary antibodies, and followed by secondary antibodies.

[10] = tested on: Pmp22+/− mice; assay: Mouse tolerance to PF3758309 (i.p. daily); type: in vivo
From the text: Pmp22+/− mice were backcrossed with C57Bl6J mice (Jackson Lab) for more than 10 generations to reach congenic. Mice were genotyped as described. The congenic Pmp22+/− mice have been extensively characterized.
For PAK1 inhibitor (PF3758309) injections, Pmp22+/− mice were randomized into vehicle and treated groups. Based on the power calculation of variations derived from mouse compound nerve action potentials, 7 mice for each group would have a 92% chance to detect a significant difference. PF-3758309 (Cat# CT-PF0375, ChemieTek) was dissolved in normal saline for intraperitoneal injection (i.p.) daily.

[11] = target: T2, PAK1; assay: Western blot of phosphorylated PAK1 (T212) in sciatic nerves of treated Pmp22+/− mice; conditions: 0.25 mg/kg/day I.P., n = 8
Target sequence in this assay (O88643 whole entry): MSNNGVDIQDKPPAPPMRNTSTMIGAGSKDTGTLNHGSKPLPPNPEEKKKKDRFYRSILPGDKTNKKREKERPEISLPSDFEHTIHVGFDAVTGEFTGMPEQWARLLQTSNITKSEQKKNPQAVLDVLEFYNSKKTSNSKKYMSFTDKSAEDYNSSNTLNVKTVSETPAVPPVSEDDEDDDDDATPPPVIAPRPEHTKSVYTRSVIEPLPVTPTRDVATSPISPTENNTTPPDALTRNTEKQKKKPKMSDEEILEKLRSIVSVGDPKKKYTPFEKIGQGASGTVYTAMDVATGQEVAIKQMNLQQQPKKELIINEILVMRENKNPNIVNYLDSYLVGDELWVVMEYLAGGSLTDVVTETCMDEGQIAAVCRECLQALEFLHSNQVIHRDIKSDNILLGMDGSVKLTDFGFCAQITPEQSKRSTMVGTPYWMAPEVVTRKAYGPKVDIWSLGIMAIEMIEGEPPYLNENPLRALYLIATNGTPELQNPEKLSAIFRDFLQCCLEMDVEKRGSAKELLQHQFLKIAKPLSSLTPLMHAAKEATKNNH
Method: The specificity of total PAK1, S144, and T212 antibodies was verified using Pak1+/+ and Pak1−/− nerves.
as §2
Samples were homogenized for protein isolation. […] Samples were loaded into SDS-PAGE gels and transferred to a PVDF membrane. The membranes were blotted with 5% non-fat milk and incubated overnight at 4° C. with primary antibodies, and followed by secondary antibodies. The immune complexes were detected by the enhanced chemoilluminescence (Cat# NEL103001, Perkin Elmer). In some cases, the blots were stripped and re-probed with additional antibodies. Quantification of band intensity was performed by the ImageJ software (rsbweb.nih.gov/ij/).

[12] = tested on: MEK1; assay: Western blot of phosphorylated MEK1 (S298) in sciatic nerves of treated Pmp22+/− mice; type: in vivo, mouse; conditions: 1 week old at start of injection; 0.25 mg/kg/day I.P.; 11 weeks; n = 8
From the text: Residues in other PAKs could be phosphorylated but cannot be substantiated due to the lack of specific antibodies.
Samples were homogenized for protein isolation.

[13] = 1 week old at start of injection, 11 weeks
[14] = 6-11 month age at start of injection, 4 weeks

Cc1nc(Nc2n[nH]c3c2CN(C(=O)N[C@H](CN(C)C)c2ccccc2)C3(C)C)c2sccc2n1 [PF-3758309]
% Tomacula ([1]; 1 week old at start of injection, 11 weeks, n = 8): 27.3 ± 4.5%
% Tomacula +outlier ([1]; 6-11 month age at start of injection, 4 weeks, outlier included): 25.2 ± 7.5%
% Tomacula −outlier ([1]; 6-11 month age at start of injection, 4 weeks, outlier taken off): 22.8 ± 4.3 ^d %
3 kDa Dextran fluorescence intensity (myelin permeability) [2]: significantly decreased
CMAP amplitude ([3]; 1.00 mg/kg i.p. daily for 11 weeks from postnatal day 7, eight 3-month-old Pmp22+/− mice (Pmp22+/+ 3.2±0.6 mV)): 1.5±0.8 mV
decline of CMAP amplitudes ([3]; 0.25, 0.5, 1.0 mg/kg i.p. daily for 11 weeks from postnatal day 7, versus vehicle): prevented the decline of CMAP amplitudes with all three dosages
CV(m/s) [3, 13]: 17.8 ± 3.0 m/s
CV(m/s) [3, 14]: 19.7 ± 11.1 m/s
decrease of CMAP amplitudes over the course of treatment ([3]; mice enrolled at 6-11 months, 0.25 mg/kg, vehicle fell from 1.6±0.7 mV to 0.7±0.2 mV): completely prevented
penetration into the nervous system [4]: penetrated into the nervous system
levels of F-actin ([5]; 0.25 mg/kg i.p. daily for 11 weeks, 3-month-old Pmp22+/− mice): suppressed
F-actin levels ([5]; mice enrolled at 6-11 months, 0.25 mg/kg): significantly lower
level of phosphorylated PAK2 (S20) [6]: inhibited
total PAK2 levels [6]: not altered
F-actin level [7]: failed to change
F-actin level [8]: hardly detectable
level of phosphorylated PAK1 (S144) [8]: suppressed
level of phosphorylated PAK1 (T212) [8]: suppressed
% abnormal Claudin-19 (incisures) ([9]; incisures, 1 week old at start of injection, 11 weeks): 27.7 ± 4.6 ^b %
% abnormal Claudin-19 (paranodes) [9, 13]: 36.5 ± 18.4 ^a %
% abnormal Claudin-19 (paranodes) [9, 14]: 43.5 ± 13.3 ^a %
mortality and side-effect ([10]; 0.25 mg/kg, treated for 11 weeks): no increase of mouse mortality and observable side-effect
mice killed ([10]; 2.5 mg/kg or 25 mg/kg i.p. daily, 20 Pmp22+/− mice, within 15 days): over 50%
body weight ([10]; 2.5 mg/kg or 25 mg/kg i.p. daily, within 15 days): drastic reduction of body weight
tolerance (body weight, death) ([10]; 0.25, 0.5, 1.0 mg/kg i.p. daily, 11 weeks): tolerated these doses well with no change of body weight or increase of death
Ratio (T212/PAK1) [11, 13]: 0.61 ± 0.0
Ratio (T212/PAK1) [11, 14]: 0.26 ± 0.1
Ratio (S298/MEK1) [12]: 0.39 ± 0.2
